ChEMBL document CHEMBL2413061, “Synthesis and cytotoxic activity evaluation of 2,3-thiazolidin-4-one derivatives on human breast cancer cell lines” (Bioorg Med Chem Lett, 2013)
The source made the active and inactive calls. The calls are words filed in the database; no cut-off is given here.

Tests used:
NIH3T3 = assay: Cytotoxicity against mouse 3T3 cells assessed as cell viability at 0.1 to 10 uM after 72 hrs by MTT assay; assay type: cell-based; conditions: nih3t3, 72 h
SK-BR-3 [1] = assay: Cytotoxicity against human estrogen receptor negative SKBR3 cells at 0.1 to 50 uM after 72 hrs by MTT assay; assay type: functional, cell-based
SK-BR-3 [2] = assay: Cytotoxicity against human estrogen receptor negative SKBR3 cells at 10 uM after 72 hrs by MTT assay; assay type: functional, cell-based
MCF7 [3] = assay: Cytotoxicity against human estrogen receptor positive MCF7 cells after 72 hrs by MTT assay; assay type: functional, cell-based; conditions: for IC50: MCF7, 72 h
MCF7 [4] = assay: Cytotoxicity against human estrogen receptor positive MCF7 cells at 1 to 10 uM after 72 hrs by MTT assay; assay type: functional, cell-based
MCF7 [5] = assay: Cytotoxicity against human estrogen receptor positive MCF7 cells at 50 uM after 72 hrs by MTT assay; assay type: functional, cell-based
MCF7 [6] = assay: Cytotoxicity against human estrogen receptor positive MCF7 cells at 0.1 uM after 72 hrs by MTT assay; assay type: functional, cell-based
SK-BR-3 [7] = assay: Cytotoxicity against human estrogen receptor negative SKBR3 cells after 72 hrs by MTT assay; assay type: functional, cell-based; conditions: SK-BR-3, 72 h
MCF7 [8] = assay: Cytotoxicity against human estrogen receptor positive MCF7 cells at 1 uM after 72 hrs by MTT assay; assay type: functional, cell-based

SMILES	Activity (NIH3T3)	inhibition (SK-BR-3 [1])	inhibition (SK-BR-3 [2])	Activity (MCF7 [3])	Activity (MCF7 [4])	IC50 (MCF7 [3])	inhibition (MCF7 [5])	inhibition (MCF7 [6])	IC50 (SK-BR-3 [7])	inhibition (MCF7 [8])
O=C1CSC(c2cc(O)cc(O)c2)N1c1ccc(O)cc1 (stereo unspecified)	Non-toxic	inactive	Active	Dose-dependent effect						
O=C1CSC(c2ccc(Cl)cc2)N1c1ccc(O)cc1 (stereo unspecified)	Non-toxic	inactive	Active	Dose-dependent effect	Active	5 µM				
Cc1ccc(N2C(=O)CSC2c2cccc3ccccc23)cc1 (stereo unspecified)	Non-toxic						inactive	Active	0.25 µM	
O=C1CSC(c2ccc(O)cc2O)N1c1ccc(O)cc1 (stereo unspecified)	Non-toxic	inactive								
COc1cc(C2SCC(=O)N2c2ccc(C)cc2)cc(OC)c1OC (stereo unspecified)	Non-toxic								0.23 µM	
Oc1ccc(/C=C/c2cc(O)cc(O)c2)cc1 [RESVERATROL]						28.1 µM			41.4 µM	
COc1ccc(C2SCC(=O)N2c2ccc(O)cc2)cc1OC (stereo unspecified)	Non-toxic	inactive	Active	Dose-dependent effect	Active	2.58 µM				
O=C1CSC(c2ccccc2)N1c1ccccc1 (stereo unspecified)	Non-toxic			Dose-dependent effect					0.81 µM	
COc1cc(C2SCC(=O)N2c2ccc(O)cc2)cc(OC)c1OC (stereo unspecified)	Non-toxic	inactive	Active	Dose-dependent effect						
O=C1CSC(c2ccc(O)cc2)N1c1ccc(O)cc1 (stereo unspecified)	Non-toxic	inactive								
Cc1ccc(N2C(=O)CSC2c2ccc(Cl)cc2)cc1 (stereo unspecified)	Non-toxic	inactive	Active	Dose-dependent effect						
COc1ccc(C2SCC(=O)N2c2ccc(O)cc2)c(OC)c1 (stereo unspecified)	Non-toxic	inactive		Dose-dependent effect						
O=C1CSC(c2ccc(O)c(O)c2)N1c1ccc(O)cc1 (stereo unspecified)	Non-toxic	inactive					inactive			Active
